These results are taken from article PMC3713518, “Structure-based discovery of fiber-binding compounds that reduce the cytotoxicity of amyloid beta” (eLife, 2013).

The Kd is the concentration at which binding is half-saturated. Read a high Kd as weaker binding.

The target in one test is T1, Aβ1–42 fibers (Homo sapiens, UniProt P05067).
T1 construct: gene APP; residues 1-42 of Abeta from APP polyprotein; E. coli His-(NANP)19-TEV fusion, tag cut by TEV; fibrils grown 2 months
T1 sequence (P05067 672-713): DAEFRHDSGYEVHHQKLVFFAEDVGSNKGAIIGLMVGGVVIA
Kind of test: 1H NMR of compound with fibers. The note with it: PBS pH 7.4, 283 K; binding to full-length Abeta fibers. From the text:
1H NMR of compound with fibers on Aβ1–42 fibers
Consider `O=C1OC2(c3ccccc31)c1cc(Br)c(O)c(Br)c1Oc1c2cc(Br)c(O)c1Br` [BAF1], for which the “Binding to Aβ fiber / NMR peak reduction (%)” value turned out to be 8%.
On the same count and under the same terms, as for `Cc1ccc(O)c(N=Nc2c(O)cc(S(=O)(=O)O)c3ccccc23)c1` [BAF8], the figure is 13%; as for `O=S(=O)(O)c1cc(S(=O)(=O)O)c2c(N=Nc3ccccc3)c(O)ccc2c1` [orange G], 6%.

The next test has as its target T2, KLVFFA (Aβ16–21) fibers (Homo sapiens, UniProt P05067).
T2 construct: gene APP; fibrils grown 3 months; segment of Abeta cut from APP polyprotein
Kind of test: 1H NMR titration of compound with fibers. In kind it is binding.
Conditions: not given
Take `O=C1OC2(c3ccccc31)c1cc(Br)c(O)c(Br)c1Oc1c2cc(Br)c(O)c1Br` [BAF1]: the Kd worked out at 12 ± 7 µM.
The compound `Cc1ccc(O)c(N=Nc2c(O)cc(S(=O)(=O)O)c3ccccc23)c1` [BAF8] showed a Kd of 24 ± 5 µM.
Still for that read-out and setting: next, `O=S(=O)(O)c1cc(S(=O)(=O)O)c2c(N=Nc3ccccc3)c(O)ccc2c1` [orange G]: 43 ± 21 µM.
